Assay results from patent US8404710B2, “Phosphodiesterase 10A inhibitor” (Kyorin Pharmaceutical Co., Ltd., priority 2002, dated 2013).

How the values were obtained:
PDE2A3 = target: T1, PDE2A3 (Homo sapiens, UniProt O00408); assay: Inhibition of recombinant human PDE2A3 by ibudilast; format: biochemical; details: PDE 2A3, substrate cAMP 2 μM
T1 construct: cDNA of full length PDEs, specifically, PDE1A3, PDE2A3; made in house; host or cells: Sf9 insect cells (baculovirus)

PDE11A1 = target: T2, PDE11A1 (Homo sapiens, UniProt Q9HCR9); assay: Inhibition of recombinant human PDE11A1 by ibudilast; format: biochemical
T2 construct: cDNA of full length PDEs, specifically, PDE1A3, PDE2A3, PDE3A, PDE3B, PDE4A4, PDE4B2, PDE4C2, PDE4D3, PDE5A1, PDE5A2, PDE5A3, PDE7A2, PDE8A1, PDE9A2, PDE10A1, and PDE11A1; made in house; host or cells: Sf9 insect cells (baculovirus)

PDE4C2 = target: T3, PDE4C2 (Homo sapiens, UniProt Q08493); assay: Inhibition of recombinant human PDE4C2 by ibudilast; format: biochemical; details: PDE 4C2, substrate cAMP 2 μM
T3 construct: cDNA of full length PDEs, specifically, PDE1A3, PDE2A3, PDE3A, PDE3B, PDE4A4, PDE4B2, PDE4C2; made in house; host or cells: Sf9 insect cells (baculovirus)

PDE7A2 = target: T4, PDE7A2 (Homo sapiens, UniProt Q13946); assay: Inhibition of recombinant human PDE7A2 by ibudilast; format: biochemical; details: PDE 7A2, substrate cAMP 0.2 μM
T4 construct: cDNA of full length PDEs, specifically, PDE1A3, PDE2A3, PDE3A, PDE3B, PDE4A4, PDE4B2, PDE4C2, PDE4D3, PDE5A1, PDE5A2, PDE5A3, PDE7A2; made in house; host or cells: Sf9 insect cells (baculovirus)

PDE3B = target: T5, PDE3B (Homo sapiens, UniProt Q13370); assay: Inhibition of recombinant human PDE3B by ibudilast (Sf9 cell suspension); format: biochemical; details: PDE 3B, substrate cAMP 2 μM
T5 construct: cDNA of full length PDEs, specifically, PDE1A3, PDE2A3, PDE3A, PDE3B; made in house; host or cells: Sf9 insect cells (baculovirus); unpurified cell suspension in RIPA buffer

PDE8A1 = target: T6, PDE8A1 (Homo sapiens, UniProt O60658); assay: Inhibition of recombinant human PDE8A1 by ibudilast; format: biochemical; details: PDE 8A1, substrate cAMP 0.2 μM
T6 construct: cDNA of full length PDEs, specifically, PDE1A3, PDE2A3, PDE3A, PDE3B, PDE4A4, PDE4B2, PDE4C2, PDE4D3, PDE5A1, PDE5A2, PDE5A3, PDE7A2, PDE8A1; made in house; host or cells: Sf9 insect cells (baculovirus)

PDE4D3 = target: T7, PDE4D3 (Homo sapiens, UniProt Q08499); assay: Inhibition of recombinant human PDE4D3 by ibudilast; format: biochemical; details: PDE 4D3, substrate cAMP 2 μM
T7 construct: cDNA of full length PDEs, specifically, PDE1A3, PDE2A3, PDE3A, PDE3B, PDE4A4, PDE4B2, PDE4C2, PDE4D3; made in house; host or cells: Sf9 insect cells (baculovirus)

PDE9A2 = target: T8, PDE9A2 (Homo sapiens, UniProt O76083); assay: Inhibition of recombinant human PDE9A2 by ibudilast; format: biochemical; details: PDE 9A2, substrate cGMP 0.2 μM
T8 construct: cDNA of full length PDEs, specifically, PDE1A3, PDE2A3, PDE3A, PDE3B, PDE4A4, PDE4B2, PDE4C2, PDE4D3, PDE5A1, PDE5A2, PDE5A3, PDE7A2, PDE8A1, PDE9A2; made in house; host or cells: Sf9 insect cells (baculovirus)

PDE10A1 = target: T9, PDE10A1 (Homo sapiens, UniProt Q9Y233); assay: Inhibition of recombinant human PDE10A1 by ibudilast; format: biochemical
T9 construct: cDNA of full length PDEs, specifically, PDE1A3, PDE2A3, PDE3A, PDE3B, PDE4A4, PDE4B2, PDE4C2, PDE4D3, PDE5A1, PDE5A2, PDE5A3, PDE7A2, PDE8A1, PDE9A2, PDE10A1; made in house; host or cells: Sf9 insect cells (baculovirus)

PDE4A4 = PDE4A4 (Homo sapiens, UniProt P27815); assay: Inhibition of recombinant human PDE4A4 by ibudilast; format: biochemical; details: PDE 4A4, substrate cAMP 2 μM
PDE1A3 = target: T10, PDE1A3 (Homo sapiens, UniProt P54750); assay: Inhibition of recombinant human PDE1A3 by ibudilast; format: biochemical
T10 construct: cDNA of full length PDEs, specifically, PDE1A3; made in house; host or cells: Sf9 insect cells (baculovirus)

PDE10A = PDE10A (Homo sapiens, UniProt Q9Y233); details: human PDE10A gene product; cited from earlier work
PDE10A, sequence (Q9Y233 whole entry): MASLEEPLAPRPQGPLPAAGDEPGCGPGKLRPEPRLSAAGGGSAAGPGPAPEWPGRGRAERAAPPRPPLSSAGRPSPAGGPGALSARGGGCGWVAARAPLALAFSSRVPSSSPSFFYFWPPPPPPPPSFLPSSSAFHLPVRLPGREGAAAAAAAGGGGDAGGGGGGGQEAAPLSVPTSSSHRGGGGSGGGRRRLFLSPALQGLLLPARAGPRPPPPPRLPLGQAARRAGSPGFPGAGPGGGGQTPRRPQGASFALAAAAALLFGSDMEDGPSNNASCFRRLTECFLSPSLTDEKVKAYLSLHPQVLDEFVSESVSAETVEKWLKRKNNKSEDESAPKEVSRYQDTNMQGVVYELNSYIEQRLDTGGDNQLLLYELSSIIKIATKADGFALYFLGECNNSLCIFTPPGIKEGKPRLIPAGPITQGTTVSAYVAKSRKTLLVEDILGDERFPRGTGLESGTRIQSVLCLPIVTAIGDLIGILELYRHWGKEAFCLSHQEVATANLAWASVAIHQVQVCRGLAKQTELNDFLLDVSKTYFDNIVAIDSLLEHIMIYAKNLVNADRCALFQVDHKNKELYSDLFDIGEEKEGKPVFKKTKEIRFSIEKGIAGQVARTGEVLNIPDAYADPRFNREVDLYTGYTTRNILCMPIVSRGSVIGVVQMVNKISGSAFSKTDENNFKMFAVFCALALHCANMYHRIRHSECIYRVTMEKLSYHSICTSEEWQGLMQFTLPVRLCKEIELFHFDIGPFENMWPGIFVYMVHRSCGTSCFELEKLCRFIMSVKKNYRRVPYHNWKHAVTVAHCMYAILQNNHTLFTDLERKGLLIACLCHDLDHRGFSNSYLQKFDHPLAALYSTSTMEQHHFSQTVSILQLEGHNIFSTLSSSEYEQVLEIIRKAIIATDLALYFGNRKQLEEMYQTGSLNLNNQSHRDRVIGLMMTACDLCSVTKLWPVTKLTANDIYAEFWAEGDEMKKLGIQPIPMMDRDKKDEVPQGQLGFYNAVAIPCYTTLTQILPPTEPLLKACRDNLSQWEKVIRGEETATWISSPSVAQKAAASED

T9 sequence (Q9Y233 1-779 isoform Q9Y233-1): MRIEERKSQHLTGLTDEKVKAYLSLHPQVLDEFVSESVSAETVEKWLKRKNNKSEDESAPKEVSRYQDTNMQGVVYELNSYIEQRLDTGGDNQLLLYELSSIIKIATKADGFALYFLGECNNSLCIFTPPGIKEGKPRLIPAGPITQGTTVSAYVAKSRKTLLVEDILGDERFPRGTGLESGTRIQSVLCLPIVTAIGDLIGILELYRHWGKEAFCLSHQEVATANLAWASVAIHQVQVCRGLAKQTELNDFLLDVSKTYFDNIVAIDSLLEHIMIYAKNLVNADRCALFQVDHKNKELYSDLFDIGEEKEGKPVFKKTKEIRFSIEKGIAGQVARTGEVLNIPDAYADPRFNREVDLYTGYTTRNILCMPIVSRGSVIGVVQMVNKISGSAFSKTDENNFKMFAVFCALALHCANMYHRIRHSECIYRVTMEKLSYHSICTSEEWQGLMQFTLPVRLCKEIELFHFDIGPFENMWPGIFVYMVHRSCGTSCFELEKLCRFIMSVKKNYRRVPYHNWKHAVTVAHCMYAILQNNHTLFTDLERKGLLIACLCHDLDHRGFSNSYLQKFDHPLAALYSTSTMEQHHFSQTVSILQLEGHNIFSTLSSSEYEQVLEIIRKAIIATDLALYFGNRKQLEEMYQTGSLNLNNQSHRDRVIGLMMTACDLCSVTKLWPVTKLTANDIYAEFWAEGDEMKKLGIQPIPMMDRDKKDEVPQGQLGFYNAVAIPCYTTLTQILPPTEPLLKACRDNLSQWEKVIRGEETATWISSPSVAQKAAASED
T10 sequence (P54750 whole entry): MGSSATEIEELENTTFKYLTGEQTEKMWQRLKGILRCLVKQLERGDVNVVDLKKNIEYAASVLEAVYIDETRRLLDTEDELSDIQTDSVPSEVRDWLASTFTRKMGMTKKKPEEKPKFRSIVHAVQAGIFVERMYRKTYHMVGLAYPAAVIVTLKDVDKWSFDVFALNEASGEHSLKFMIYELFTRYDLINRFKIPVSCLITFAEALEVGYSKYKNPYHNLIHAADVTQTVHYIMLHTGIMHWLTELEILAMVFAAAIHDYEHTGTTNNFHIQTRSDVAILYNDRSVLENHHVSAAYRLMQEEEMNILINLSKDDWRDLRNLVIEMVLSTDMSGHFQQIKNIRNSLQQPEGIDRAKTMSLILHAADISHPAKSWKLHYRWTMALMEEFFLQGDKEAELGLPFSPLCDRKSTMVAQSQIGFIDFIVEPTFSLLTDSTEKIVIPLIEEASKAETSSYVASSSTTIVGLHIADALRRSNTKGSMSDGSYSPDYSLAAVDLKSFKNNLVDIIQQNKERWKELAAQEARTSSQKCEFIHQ
T2 sequence (Q9HCR9 445-933): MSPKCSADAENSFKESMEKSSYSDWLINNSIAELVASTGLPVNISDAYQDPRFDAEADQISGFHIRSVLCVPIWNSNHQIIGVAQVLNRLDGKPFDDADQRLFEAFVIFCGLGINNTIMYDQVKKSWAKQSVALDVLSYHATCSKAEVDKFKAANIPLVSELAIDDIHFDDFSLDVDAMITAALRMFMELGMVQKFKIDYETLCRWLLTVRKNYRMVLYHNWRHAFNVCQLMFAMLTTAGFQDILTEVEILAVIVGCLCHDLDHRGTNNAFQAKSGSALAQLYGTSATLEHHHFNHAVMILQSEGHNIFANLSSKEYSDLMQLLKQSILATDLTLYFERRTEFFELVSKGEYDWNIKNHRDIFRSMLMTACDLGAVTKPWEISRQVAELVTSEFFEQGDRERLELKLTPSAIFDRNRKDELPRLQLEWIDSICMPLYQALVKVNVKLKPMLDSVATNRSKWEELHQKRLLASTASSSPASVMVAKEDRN
T8 sequence (O76083 1-533 isoform O76083-2): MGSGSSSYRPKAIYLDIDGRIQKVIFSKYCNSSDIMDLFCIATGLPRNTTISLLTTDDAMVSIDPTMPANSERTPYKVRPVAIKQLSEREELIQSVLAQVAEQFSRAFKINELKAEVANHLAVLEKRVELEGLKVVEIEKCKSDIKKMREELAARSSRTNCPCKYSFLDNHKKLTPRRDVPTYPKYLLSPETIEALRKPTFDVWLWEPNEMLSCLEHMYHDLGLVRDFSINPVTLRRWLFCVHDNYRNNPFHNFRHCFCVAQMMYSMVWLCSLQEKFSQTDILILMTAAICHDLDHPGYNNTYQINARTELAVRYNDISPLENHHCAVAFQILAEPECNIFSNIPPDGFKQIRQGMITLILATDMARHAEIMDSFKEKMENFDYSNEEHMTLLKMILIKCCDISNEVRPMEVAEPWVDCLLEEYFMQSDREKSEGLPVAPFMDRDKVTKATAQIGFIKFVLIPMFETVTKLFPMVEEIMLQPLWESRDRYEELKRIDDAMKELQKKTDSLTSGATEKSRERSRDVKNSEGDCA
T5 sequence (Q13370 whole entry): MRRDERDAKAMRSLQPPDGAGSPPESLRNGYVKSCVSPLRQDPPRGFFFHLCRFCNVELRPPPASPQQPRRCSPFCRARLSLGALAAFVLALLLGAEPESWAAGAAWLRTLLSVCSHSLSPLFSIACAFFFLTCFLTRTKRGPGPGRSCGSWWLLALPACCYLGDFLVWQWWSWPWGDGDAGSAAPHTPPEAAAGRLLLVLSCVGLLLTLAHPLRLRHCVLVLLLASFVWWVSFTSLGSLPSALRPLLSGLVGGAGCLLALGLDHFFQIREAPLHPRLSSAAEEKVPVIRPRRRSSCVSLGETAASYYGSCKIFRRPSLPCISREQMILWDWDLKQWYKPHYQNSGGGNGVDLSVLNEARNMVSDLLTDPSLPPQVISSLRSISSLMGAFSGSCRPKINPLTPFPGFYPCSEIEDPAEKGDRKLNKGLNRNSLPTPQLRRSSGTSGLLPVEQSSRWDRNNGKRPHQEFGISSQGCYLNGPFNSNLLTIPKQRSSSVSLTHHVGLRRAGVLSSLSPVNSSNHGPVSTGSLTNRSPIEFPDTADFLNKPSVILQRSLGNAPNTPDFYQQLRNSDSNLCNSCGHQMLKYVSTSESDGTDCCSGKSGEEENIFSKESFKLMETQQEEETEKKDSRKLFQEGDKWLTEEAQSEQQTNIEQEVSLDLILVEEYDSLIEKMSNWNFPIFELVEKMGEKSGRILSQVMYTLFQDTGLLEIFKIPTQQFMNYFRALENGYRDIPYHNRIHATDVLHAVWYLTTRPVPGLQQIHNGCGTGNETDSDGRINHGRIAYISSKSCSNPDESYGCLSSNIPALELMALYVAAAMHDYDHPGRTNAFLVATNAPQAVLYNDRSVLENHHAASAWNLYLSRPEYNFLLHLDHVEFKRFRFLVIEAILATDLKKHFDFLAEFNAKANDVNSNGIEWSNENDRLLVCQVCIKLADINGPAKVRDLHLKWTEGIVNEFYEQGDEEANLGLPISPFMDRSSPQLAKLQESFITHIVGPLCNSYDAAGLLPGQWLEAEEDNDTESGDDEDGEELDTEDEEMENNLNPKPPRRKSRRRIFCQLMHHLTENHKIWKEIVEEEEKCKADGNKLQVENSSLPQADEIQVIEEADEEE
T4 sequence (Q13946 1-456 isoform Q13946-2): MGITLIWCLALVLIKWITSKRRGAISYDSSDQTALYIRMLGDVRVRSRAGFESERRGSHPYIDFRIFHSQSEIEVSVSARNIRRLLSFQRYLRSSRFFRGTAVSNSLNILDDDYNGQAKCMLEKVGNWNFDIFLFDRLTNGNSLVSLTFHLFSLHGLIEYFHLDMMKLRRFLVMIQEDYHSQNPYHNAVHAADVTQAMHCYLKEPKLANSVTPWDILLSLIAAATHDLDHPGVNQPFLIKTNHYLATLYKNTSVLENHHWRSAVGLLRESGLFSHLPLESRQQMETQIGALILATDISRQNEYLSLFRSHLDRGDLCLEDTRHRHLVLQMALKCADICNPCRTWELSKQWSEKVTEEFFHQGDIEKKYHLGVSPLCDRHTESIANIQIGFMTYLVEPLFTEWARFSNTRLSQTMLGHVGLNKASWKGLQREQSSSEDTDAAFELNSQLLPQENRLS

| IC50 (PDE2A3) [µM] | IC50 (PDE11A1; PDE 11A1, substrate cAMP 2 μM) [µM] | IC50 (PDE11A1; PDE 11A1, substrate cGMP 0.2 μM) [µM] | IC50 (PDE4C2) [µM] | IC50 (PDE7A2) [µM] | IC50 (PDE3B) [µM] | IC50 (PDE8A1) [µM] | IC50 (PDE4D3) [µM] | IC50 (PDE9A2) [µM] | IC50 (PDE10A1; PDE 10A1, substrate cAMP 0.2 μM) [µM] | IC50 (PDE10A1; PDE 10A1, substrate cGMP 2 μM) [µM] | inhibition of PDE10A1 compared with other PDEs (PDE10A1; in vitro, recombinant human PDE) | IC50 (PDE4A4) [µM] | IC50 (PDE1A3; PDE 1A3, substrate cAMP 2 μM) [µM] | IC50 (PDE1A3; PDE 1A3, substrate cGMP 2 μM) [µM] | Compound | inhibition of PDE10A (PDE10A) |
| --- | --- | --- | --- | --- | --- | --- | --- | --- | --- | --- | --- | --- | --- | --- | --- | --- |
| 78 | 17 | 36 | 11 | 115 | 266 | 49 | 6 | > 400 | 3 | 1 | particularly strong inhibition | 6 | 40 | 121 | CC(C)C(=O)c1c(C(C)C)nn2ccccc12 [ibudilast, 3-isobutyryl-2-isopropyl pyrazolo[1,5-a]pyridine] |  |
|  |  |  |  |  |  |  |  |  |  |  |  |  |  |  | OCCN(CCO)c1nc(N2CCCCC2)c2nc(N(CCO)CCO)nc(N3CCCCC3)c2n1 [dipyridamole] | inhibited |
